“Also recorded” adds a separate entry of the source.
Tests used:
KMO = target: T1, KMO (Homo sapiens, UniProt O15229); assay: KMO inhibition: L-kynurenine hydroxylation to 3OH-KYN monitored by LC/MS; assay type: biochemical; conditions: 10 μM compound
T1 construct: GST; His; expressed in transfected cells; host or cells: CHO (CHO-GST HIS KMO cell line)
Method: A generalized procedure for monitoring L-Kynurenine (KYN) hydroxylation to form product 3-Hydroxy-Kynurenine (3OH—KYN) by LC/MS is described below. Product is quantified by multiple reaction monitoring using MS.
IC50's are calculated using automated fitting algorithm (A+ Analysis)
A method of monitoring L-Kynurenine (KYN) hydroxylation to form product 3-Hydroxy-Kynurenine (3OH—KYN) by LC/MS is described below. Product is quantified by multiple reaction monitoring.
• Compound: Stock concentrations: 10 mM in 100% DMSO • Enzyme: KMO enzyme prepared at Evotec via mitochondria isolation from CHO-GST HIS KMO cells • Substrate: L-Kynurenine (Sigma: Cat#K3750) • [stock concentration: 10 mM in 100 mM potassium phosphate buffer, pH 7.4]
IC50's are calculated using automated fitting algorithm (A+ Analysis).
A method of monitoring L-Kynurenine (KYN) hydroxylation to form 3-Hydroxy-Kynurenine (3OH—KYN) by LC/MS is described. Product is quantified by multiple reaction monitoring (MRM method).

KP metabolite KYNA = assay: Microdialysis after PO dosing in WT and HD (Q175_KI homozygous) animals: KYNA in striatum; assay type: in vivo, mouse; conditions: PO 3 mg/kg or 10 mg/kg
Method: (§1) Animals were anesthetized using isoflurane (2%, 800 mL/min O2). Bupivacain/epinephrine was used for local analgesia, finadyne or carprophen for peri-/post-operative analgesia. The animals were placed in a stereotaxic frame (Kopf instruments, USA). I-shaped probes (membrane: polyacrylonitrile, 3 mm exposed surface; Brainlink, the Netherlands) were inserted in the striatum. After surgery, animals were kept individually in cages; provided food and water ad libitum.
Experiments were performed one day after surgery. On the day of the experiment, the probes of the animals were connected with flexible PEEK tubing to a microperfusion pump (Harvard PHD 2000 Syringe pump, Holliston, Mass. or similar). […] Dialysate levels of any or all of KP metabolites KYN, KYNA, 3-OH—KYN, AA and QA were quantified by LC-MS/MS at by Brains On-Line. […] Levels of KP metabolites were measured in terminal brain (striatum+cortex), liver, kidney, plasma and CSF samples at Brains On-Line. Finally, levels of kynurenine and KMO inhibitors in dose formulation samples were quantified by Brains On-Line.
A method of examining the modulation of KP metabolites in HD animals similar to WT controls is disclosed. […] Following the microdialysis procedure described herein, dialysate levels of KP metabolite KYNA was quantified by LC-MS/MS at by Brains On-Line. […]

[1] = test system: KP metabolites (KYN, KYNA, AA, 3-HK) via KMO inhibition; assay: Microdialysis after PO dosing at various dosage levels: KP metabolites in striatum extracellular space; assay type: in vivo; conditions: PO 3, 10 or 30 mg/kg; mouse striatum microdialysis
Method: as §1
(§2) Experiments were performed one day after surgery. On the day of the experiment, the probes of the animals were connected with flexible PEEK tubing to a microperfusion pump (Harvard PHD 2000 Syringe pump, Holliston, Mass. or similar). The I-shaped microdialysis probes were perfused with aCSF containing 147 mM NaCl, 3.0 mM KCl, 1.2 mM CaCl2 and 1.2 mM MgCl2, at a flow rate of 1.5 μL/min. Microdialysis samples were collected at 20-minute intervals by an automated fraction collector (820 Microsampler, Univentor, Malta or similar) into mini-vials already containing 10 μL 0.02 M formic acid (FA) and 0.04% ascorbic acid in ultrapurified H2O. At t=−30 min vehicle or KMO inhibitor were be administered, to ensure central and peripheral inhibition of KMO at the time of administration of kynurenine. At t=0 vehicle or kynurenine were administered. Microdialysate samples were collected for 240 min after administration of kynurenine. All the dialysis samples were stored at −80° C. awaiting their analysis. Dialysate levels of any or all of KP metabolites KYN, KYNA, 3-OH—KYN, AA and QA were quantified by LC-MS/MS at by Brains On-Line. After the experiment, the mice were sacrificed and terminal brain (striatum+cortex), liver, kidney, plasma and CSF samples were collected for analysis of KP metabolites. Levels of KP metabolites were measured in terminal brain (striatum+cortex), liver, kidney, plasma and CSF samples at Brains On-Line. Finally, levels of kynurenine and KMO inhibitors in dose formulation samples were quantified by Brains On-Line.
A method of examining the modulation of KYN, KYNA, AA, and 3-HK via KMO inhibition with Compound 6 in striatum extracellular space is disclosed. […] Following the microdialysis procedure described herein, dialysate levels of KP metabolites KYN, KYNA, 3-HK, and AA were quantified by LC-MS/MS at by Brains On-Line.

[2] = test system: extracellular levels of KYN, KYNA, 3-OH-KYN, AA and QA in the striatum; assay: Microdialysis after PO dosing of kynurenine, Compound 6 or both: extracellular KP metabolites in striatum; assay type: in vivo, adult male WT mice; conditions: 30 mg/kg p.o., dosed alone; WT mice
Method: as §1, §2
A method of examining the pharmacodynamic effects of kynurenine (30 mg/kg, p.o.) and Compound 6 (30 mg/kg, p.o.) on extracellular levels of KYN, KYNA, 3-OH—KYN, AA and QA in the striatum (STR) of adult male WT mice either co-dosed or dosed independently is disclosed.
Furthermore, PO administration of Compound 6 blocks toxic metabolites 3-OH—KYN (see FIG. 10) and QA (see FIG. 11), whereas kynurenine dosing increases them, due to kynurenine catabolism in mice brain.

[3] = target: NMDA receptor NR2B subunit (Homo sapiens, UniProt Q13224); conditions: NMDA receptor agonist; cited from earlier work
Chain of NMDA receptor NR2B subunit (Q13224 27-1484, other chains not shown): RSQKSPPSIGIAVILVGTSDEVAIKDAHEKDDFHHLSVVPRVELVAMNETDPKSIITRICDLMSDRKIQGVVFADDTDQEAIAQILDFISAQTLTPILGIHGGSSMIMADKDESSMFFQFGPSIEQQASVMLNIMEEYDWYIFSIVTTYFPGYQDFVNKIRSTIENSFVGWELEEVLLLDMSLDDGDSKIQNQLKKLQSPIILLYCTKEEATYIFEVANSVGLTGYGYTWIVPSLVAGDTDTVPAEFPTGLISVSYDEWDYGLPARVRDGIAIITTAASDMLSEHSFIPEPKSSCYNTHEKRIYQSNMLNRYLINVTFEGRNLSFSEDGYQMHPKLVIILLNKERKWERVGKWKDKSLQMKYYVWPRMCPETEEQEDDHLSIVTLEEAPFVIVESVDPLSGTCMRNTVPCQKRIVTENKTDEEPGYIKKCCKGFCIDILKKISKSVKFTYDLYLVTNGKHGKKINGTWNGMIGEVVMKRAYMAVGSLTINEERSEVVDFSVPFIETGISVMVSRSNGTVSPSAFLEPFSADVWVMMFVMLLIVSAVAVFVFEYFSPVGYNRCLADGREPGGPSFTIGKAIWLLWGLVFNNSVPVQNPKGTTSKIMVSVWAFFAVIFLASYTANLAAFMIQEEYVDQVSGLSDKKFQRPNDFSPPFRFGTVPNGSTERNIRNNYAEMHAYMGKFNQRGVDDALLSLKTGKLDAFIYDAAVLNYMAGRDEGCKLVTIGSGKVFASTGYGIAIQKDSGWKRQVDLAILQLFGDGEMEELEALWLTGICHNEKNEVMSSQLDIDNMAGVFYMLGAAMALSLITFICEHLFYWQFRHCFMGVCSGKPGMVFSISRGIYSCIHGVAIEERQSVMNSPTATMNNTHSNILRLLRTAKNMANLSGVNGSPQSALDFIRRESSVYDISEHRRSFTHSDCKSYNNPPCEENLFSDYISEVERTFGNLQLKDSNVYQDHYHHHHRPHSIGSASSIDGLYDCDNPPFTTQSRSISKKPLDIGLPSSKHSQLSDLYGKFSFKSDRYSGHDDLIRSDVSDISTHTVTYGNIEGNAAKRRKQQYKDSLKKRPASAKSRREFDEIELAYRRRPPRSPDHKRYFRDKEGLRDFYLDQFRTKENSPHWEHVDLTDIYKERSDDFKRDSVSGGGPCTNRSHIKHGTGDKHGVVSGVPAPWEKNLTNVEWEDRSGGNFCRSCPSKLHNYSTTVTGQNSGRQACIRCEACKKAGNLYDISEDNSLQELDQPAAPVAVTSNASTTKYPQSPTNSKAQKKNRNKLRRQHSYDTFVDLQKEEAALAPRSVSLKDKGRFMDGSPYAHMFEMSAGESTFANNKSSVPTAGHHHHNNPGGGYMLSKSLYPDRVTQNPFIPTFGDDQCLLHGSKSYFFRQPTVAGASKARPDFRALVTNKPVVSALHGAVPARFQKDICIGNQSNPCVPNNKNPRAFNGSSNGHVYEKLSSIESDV

[4] = target: NMDA receptor NR2A subunit (Homo sapiens, UniProt Q12879); conditions: NMDA receptor agonist; cited from earlier work
Chain of NMDA receptor NR2A subunit (Q12879 23-1464, other chains not shown): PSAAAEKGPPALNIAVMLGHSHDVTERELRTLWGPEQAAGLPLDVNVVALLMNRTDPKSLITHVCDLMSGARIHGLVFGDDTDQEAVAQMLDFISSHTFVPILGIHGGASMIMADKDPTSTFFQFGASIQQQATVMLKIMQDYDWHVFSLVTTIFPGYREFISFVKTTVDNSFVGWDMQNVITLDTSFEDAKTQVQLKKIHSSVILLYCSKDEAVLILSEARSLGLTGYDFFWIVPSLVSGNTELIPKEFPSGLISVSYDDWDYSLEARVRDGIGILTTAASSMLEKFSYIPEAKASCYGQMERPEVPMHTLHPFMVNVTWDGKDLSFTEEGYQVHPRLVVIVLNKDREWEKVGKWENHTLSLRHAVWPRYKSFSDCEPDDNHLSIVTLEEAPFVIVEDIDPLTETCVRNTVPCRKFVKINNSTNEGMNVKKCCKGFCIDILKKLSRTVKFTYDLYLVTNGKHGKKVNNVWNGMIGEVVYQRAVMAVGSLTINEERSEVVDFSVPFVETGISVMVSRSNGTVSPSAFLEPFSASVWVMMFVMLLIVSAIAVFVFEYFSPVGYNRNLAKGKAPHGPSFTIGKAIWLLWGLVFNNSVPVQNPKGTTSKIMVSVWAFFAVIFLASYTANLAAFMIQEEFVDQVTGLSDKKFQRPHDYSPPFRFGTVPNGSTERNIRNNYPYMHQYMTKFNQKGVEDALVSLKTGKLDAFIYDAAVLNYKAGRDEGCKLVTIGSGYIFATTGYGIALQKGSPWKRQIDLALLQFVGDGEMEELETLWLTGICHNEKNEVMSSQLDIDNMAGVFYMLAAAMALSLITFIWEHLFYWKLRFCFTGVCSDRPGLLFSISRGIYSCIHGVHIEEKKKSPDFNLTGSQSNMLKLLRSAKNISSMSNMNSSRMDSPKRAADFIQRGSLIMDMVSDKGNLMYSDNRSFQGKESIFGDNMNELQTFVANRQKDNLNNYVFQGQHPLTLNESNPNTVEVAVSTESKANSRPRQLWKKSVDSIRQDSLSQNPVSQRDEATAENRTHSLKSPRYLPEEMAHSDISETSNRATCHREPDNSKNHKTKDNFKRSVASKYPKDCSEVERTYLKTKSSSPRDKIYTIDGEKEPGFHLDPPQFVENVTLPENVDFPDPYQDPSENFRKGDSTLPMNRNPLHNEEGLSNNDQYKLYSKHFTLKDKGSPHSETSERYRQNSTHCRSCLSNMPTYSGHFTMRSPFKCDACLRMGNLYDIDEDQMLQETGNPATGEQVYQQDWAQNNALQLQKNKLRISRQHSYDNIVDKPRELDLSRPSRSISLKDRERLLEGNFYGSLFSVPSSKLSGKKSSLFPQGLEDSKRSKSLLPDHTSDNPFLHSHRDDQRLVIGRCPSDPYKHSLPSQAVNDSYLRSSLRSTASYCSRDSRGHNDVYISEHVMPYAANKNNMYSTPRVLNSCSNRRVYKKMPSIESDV

T1 sequence (O15229 whole entry): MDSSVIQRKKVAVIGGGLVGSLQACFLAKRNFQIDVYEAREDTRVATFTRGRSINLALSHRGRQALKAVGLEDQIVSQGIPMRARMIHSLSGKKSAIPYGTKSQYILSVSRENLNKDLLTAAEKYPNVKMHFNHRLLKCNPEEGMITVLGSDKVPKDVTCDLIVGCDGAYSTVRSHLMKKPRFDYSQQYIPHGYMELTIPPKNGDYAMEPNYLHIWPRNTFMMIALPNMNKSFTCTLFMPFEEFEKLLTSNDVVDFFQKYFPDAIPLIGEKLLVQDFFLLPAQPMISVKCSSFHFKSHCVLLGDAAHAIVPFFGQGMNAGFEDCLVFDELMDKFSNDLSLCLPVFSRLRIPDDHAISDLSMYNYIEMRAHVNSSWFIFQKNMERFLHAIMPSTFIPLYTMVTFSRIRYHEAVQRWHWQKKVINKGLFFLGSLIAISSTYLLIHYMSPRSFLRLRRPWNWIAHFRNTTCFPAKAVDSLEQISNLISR

| SMILES | inhibition at 10 µM (KMO) | 3-OH-KYN in striatum [2] | AA in striatum [2] | KYN in striatum [2] | KYNA in striatum [2] | QA in striatum [2] | also measured |
| --- | --- | --- | --- | --- | --- | --- | --- |
| CC[C@H](C)Oc1ccc(-c2cc(C(=O)O)ncn2)cc1Cl [Compound 4, (S)-6-(4-sec-butoxy-3-chlorophenyl)pyrimidine-4-carboxylic acid] | 100% |  |  |  |  |  |  |
| CC[C@@H](C)Oc1ccc(-c2cc(C(=O)O)ncn2)cc1Cl [Compound 5, (R)-6-(4-sec-butoxy-3-chlorophenyl)pyrimidine-4-carboxylic acid] | 100% |  |  |  |  |  |  |
| O=C(O)c1cc(-c2ccc(OC3CC3)c(Cl)c2)ncn1 [Compound 6, 6-(3-chloro-4-cyclopropoxyphenyl)pyrimidine-4-carboxylic acid] | 100% | blocks | increases | increases | increases | blocks | KP metabolite KYNA in striatum, HD mice (KP metabolite KYNA; Q175_KI homozygous (HD) mice): dose dependent increase; also recorded: increases; KP metabolite KYNA in striatum, WT mice (KP metabolite KYNA; wild type mice): dose dependent increase; also recorded: increases; 3-HK in striatum extracellular space [1]: insufficient modulation; also recorded: little or no effect; AA in striatum extracellular space [1]: dose dependent increases; KYN in striatum extracellular space [1]: dose dependent increases; KYNA in striatum extracellular space [1]: dose dependent increases |
| O=C(O)c1cccnc1C(=O)O [QUIN, quinolinic acid] |  |  |  |  |  |  | affinity for NR2B subunit [3]: 100 µmol; affinity for NR2A subunit [4]: 7 to 10 µmol |
| Nc1ccccc1C(=O)CC(N)C(=O)O (stereo not drawn) [kynurenine, reference compound] |  | increases | little or no effect | little or no effect | little or no effect | increases |  |

Reference: US10258621B2, “Methods and compositions for treating HIV-related disorders” (CHDI Foundation, Inc., priority 2014, dated 2019)
